# From patent EP0812190B1 (priority 1993, dated 1995)
# Read-outs that look alike come from different tables or passages of the source.
# Experiments:
# [1] = biological target: T1, MAO-A (Rattus norvegicus, UniProt P21396); conditions: 21 days
# T1 sequence (P21396 1-526): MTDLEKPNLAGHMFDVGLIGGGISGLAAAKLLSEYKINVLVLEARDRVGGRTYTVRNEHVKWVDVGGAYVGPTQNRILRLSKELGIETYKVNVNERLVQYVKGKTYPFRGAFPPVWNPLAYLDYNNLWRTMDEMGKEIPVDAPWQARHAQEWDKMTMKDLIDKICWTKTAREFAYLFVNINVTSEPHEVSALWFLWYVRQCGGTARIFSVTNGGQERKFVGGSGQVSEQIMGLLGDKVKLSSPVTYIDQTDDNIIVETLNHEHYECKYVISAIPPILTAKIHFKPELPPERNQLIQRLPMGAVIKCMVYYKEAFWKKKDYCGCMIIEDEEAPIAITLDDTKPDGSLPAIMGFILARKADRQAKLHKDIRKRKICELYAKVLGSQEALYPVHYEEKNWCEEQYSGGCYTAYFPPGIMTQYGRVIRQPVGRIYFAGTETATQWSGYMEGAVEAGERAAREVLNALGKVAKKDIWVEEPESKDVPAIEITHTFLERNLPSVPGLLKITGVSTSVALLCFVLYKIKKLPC
# Procedure: (§1) (+)PAI or the racemic mixture at three dose levels (0.05, 0.1 and 0.5mg/kg) by oral administration, one dose daily for 21 days, and decapitated 2 hours after the last dose.
# [2] = biological target: T2, MAO-B (Rattus norvegicus, UniProt P19643); assay: in vivo; conditions: po, read-out: inhibition of brain MAO-B
# T2 sequence (P19643 1-520): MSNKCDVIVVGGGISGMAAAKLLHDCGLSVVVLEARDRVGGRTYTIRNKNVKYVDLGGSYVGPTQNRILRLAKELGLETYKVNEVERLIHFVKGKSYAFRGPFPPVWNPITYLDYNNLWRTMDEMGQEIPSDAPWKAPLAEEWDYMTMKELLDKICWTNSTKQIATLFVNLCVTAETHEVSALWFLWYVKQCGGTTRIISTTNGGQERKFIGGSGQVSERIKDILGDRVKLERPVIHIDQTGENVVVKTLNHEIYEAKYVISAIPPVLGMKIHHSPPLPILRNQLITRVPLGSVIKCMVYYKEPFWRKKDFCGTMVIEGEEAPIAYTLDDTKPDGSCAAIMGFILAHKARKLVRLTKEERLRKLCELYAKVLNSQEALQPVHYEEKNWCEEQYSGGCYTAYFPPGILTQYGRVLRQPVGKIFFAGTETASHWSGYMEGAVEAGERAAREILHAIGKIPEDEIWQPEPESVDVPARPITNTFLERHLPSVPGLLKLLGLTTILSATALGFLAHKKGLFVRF
# Procedure: as §1
# [3] = biological target: T2, MAO-B; conditions: 1 mg/kg i.p. single dose; whole brain
# Procedure: Activity of MAO-B was determined in whole brain tissues as described hereinabove.
# [4] = test system: amphetamine-induced stereotype behavior; conditions: 0.5 mg/kg/day in drinking water, lateral head movements over 1 minute
# Procedure: The extent of this behavior is rated in accordance with the number of lateral head movements over a period of 1 minute.
# Following that, amphetamine was injected s.c. at a dose of 0.5 mg/kg. 45 minutes later, lateral head movements were counted.
# [5] = test system: rabbit jejunum; assay: Tyramine potentiation in rabbit jejunum preparation
# [6] = biological target: T1, MAO-A; assay: Inhibition of MAO activity in vivo, acute treatment, MAO-A; set-up: MAO activity determined in brain and liver using the general technique described above; from tissue; host or cells: brain and liver of treated rats
# Procedure: Groups of three rats were used for each dose level of inhibitor, and MAO activity determined in brain and liver using the general technique described above. The amount of protein in each incubation was determined using the Folin-Lowry method, and enzyme activity calculated as nmol of substrate metabolized per hour of incubation for each mg of protein. Activity of MAO in tissues from animals treated with inhibitors was expressed as a percentage of the enzyme activity in a group of control animals administered vehicle (water for oral administration, 0.9% saline for ip injection) and killed as above.
# [7] = dose producing 50% inhibition, rat, i.p., 1h
# [8] = dose producing 50% inhibition, rat, p.o., 2h
smiles,measurement,setting,value
"C#CCN[C@@H]1CCc2ccccc21 [[R](+)PAI, R(+)-N-propargyl-1-aminoindan]",inhibition of brain MAO-A,[1]; 0.1mg/kg daily oral,≤ 20%
same,inhibition of MAO-A,[1]; 0.5mg/kg daily oral,less than 50%
same,inhibition at 0.1 mg/kg,[2],> 80%
same,time of maximal inhibition of MAO-B after injection,[3],6 h
same,Stereotype Behavior Rating,"[4]; control senescent rats, 45 min after amphetamine 0.5 mg/kg s.c.",126±16
same,Stereotype Behavior Rating,[4]; hypoxia lesioned senescent rats,143±6
same,Percent relaxation,[5]; PAI HCl enantiomer alone 0.2-4.0 µM,0%
same,Percent relaxation,[5]; tyramine 40 µM after 0.2 µM PAI HCl enantiomer,67%
same,Percent relaxation,[5]; tyramine 40 µM after 2 µM PAI HCl enantiomer,88%
same,Percent relaxation,[5]; tyramine 40 µM after 40 µM PAI HCl enantiomer,85-90%
same,inhibition of MAO-A activity,"[6]; brain, 0.5mg/kg i.p., single dose",20%
same,inhibition of MAO-A,"[6]; brain, 0.5mg/kg oral, single dose",no detectable inhibition
same,IC-50 MAO-A I.P. BRAIN,[6]; [7],1.2 mg/kg
same,IC-50 MAO-A I.P. LIVER,[6]; [7],5 mg/kg
same,IC-50 MAO-A P.O. BRAIN,[6]; [8],>5 mg/kg
same,IC-50 MAO-A P.O. LIVER,[6]; [8],>5 mg/kg
